This note sets out measurements from patent publication US10882813B2, “Method for the synthesis of ferric oraganic compounds” (Biophore India Pharmaceuticals Pvt. Ltd., priority 2014, dated 2021).

Values joined by “and” are separate entries in the source; they are usually repeats but may differ in a detail not shown here. Equal entries are not always repeated.

Series [1] in a line: BET active (specific) surface area analysis, nitrogen adsorbate. Type of series: physicochemical. Conditions: for Specific surface area: final product of the synthesis, amorphous powder dried under vacuum at 25-30° C.; for Surface area of the sample: after one blending with water and acetone mixture and drying under vacuum at 50-55° C. As to the method: The analysis of BET is according to the method described as: out gassing a portion of the test sample, about 100 mg at 90° C. for 1 hour at ambient pressure using nitrogen as the adsorbate gas.

Series [2] can be described thus: Intrinsic dissolution rate. Type of series: physicochemical. The conditions noted are these: final product of the synthesis, amorphous powder.

Ferric Citrate [Example II]: in series [1], the Specific surface area is recorded as 10.6 sq.m/g.
As for Ferric Citrate [Example IV], in series [1], the Specific surface area is given as 11.0 sq.m/g. The compound further showed an Intrinsic dissolution rate in series [2] of 0.231 mg/sq.cm/min.
Regarding Ferric Citrate [Example VI], in series [1], the “Surface area of the sample” value amounted to 10.3 sq.m/g.
The compound Ferric Citrate [Example V] yielded a Specific surface area in series [1] of 7.8 sq.m/g. The Intrinsic dissolution rate in series [2] amounted to 0.31 mg/sq.cm/min.
For Ferric Citrate [Example III], the Specific surface area in series [1] was 12.0 sq.m/g.
Compound Ferric Citrate [Example I] showed a Specific surface area in series [1] of 12.36 sq.m/g.
Take `O=C([O-])CC(O)(CC(=O)[O-])C(=O)[O-].[Fe+3]` [Ferric Citrate, Iron (III) 2-hydroxypropane-1,2,3-tricarboxylate, reference compound]: in series [1] (starting Ferric Citrate before treatment with water and acetone mixture), the surface area was 30.0 Sq.m/g and 28.6 Sq.m/g.
Turning to Ferric Citrate [Example VII], the “Surface area of the sample” value in series [1] was 20.0 sq.m/g. Moreover, in series [1] (after repeating the same water and acetone process), the surface area turned out to be 12.5 sq.m/g.
